Data on 16 compounds can be found in US8530472B2, “Ethynyl derivatives” (Hoffmann-La Roche Inc., priority 2011, dated 2013).

Molecules are shown by their SMILES.

This test concerns the target T1, human mGlu5a receptor (Homo sapiens, UniProt P41594).
T1 construct: expressed in transfected cells
Put plainly: Intracellular Ca2+ mobilization assay (mGlu5 PAM). The class given is cell-based. The settings on record: for Emax: HEK293, maximal response in % of the maximal stimulatory effect obtained with saturating concentrations of L-glutamate, HEK-293 human mGlu5a cells, read-out: Eff. (%); for EC50: HEK-293 cells stably transfected with human mGlu5a receptor, L-glutamate added at EC20 (typically around 80 μM) after 10-30 min pre-incubation with test compound, read-out: EC50 (nM) mGlu5PAM. The procedure:
A monoclonal HEK-293 cell line stably transfected with a cDNA encoding for the human mGlu5a receptor was generated; for the work with mGlu5 Positive Allosteric Modulators (PAMs), a cell line with low receptor expression levels and low constitutive receptor activity was selected to allow the differentiation of agonistic versus PAM activity. Cells were cultured according to standard protocols (Freshney, 2000) in Dulbecco's Modified Eagle Medium with high glucose supplemented with 1 mM glutamine, 10% (vol/vol) heat-inactivated bovine calf serum, Penicillin/Streptomycin, 50 μg/ml hygromycin and 15 μg/ml blasticidin (all cell culture reagents and antibiotics from Invitrogen, Basel, Switzerland).
About 24 hrs before an experiment, 5×10^4 cells/well were seeded in poly-D-lysine coated, black/clear-bottomed 96-well plates. The cells were loaded with 2.5 μM Fluo-4AM in loading buffer (1×HBSS, 20 mM HEPES) for 1 hr at 37° C. and washed five times with loading buffer. The cells were transferred into a Functional Drug Screening System 7000 (Hamamatsu, Paris, France), and 11 half logarithmic serial dilutions of test compound at 37° C. were added and the cells were incubated for 10-30 min. with on-line recording of fluorescence. Following this pre-incubation step, the agonist L-glutamate was added to the cells at a concentration corresponding to EC20 (typically around 80 μM) with on-line recording of fluorescence; in order to account for day-to-day variations in the responsiveness of cells, the EC20 of glutamate was determined immediately ahead of each experiment by recording of a full dose-response curve of glutamate.
Responses were measured as peak increase in fluorescence minus basal (i.e. fluorescence without addition of L-glutamate), normalized to the maximal stimulatory effect obtained with saturating concentrations of L-glutamate. Graphs were plotted with the % maximal stimulatory using XLfit, a curve fitting program that iteratively plots the data using Levenburg Marquardt algorithm. The single site competition analysis equation used was y=A+((B−A)/(1+((x/C)D))), where y is the % maximal stimulatory effect, A is the minimum y, B is the maximum y, C is the EC50, x is the log 10 of the concentration of the competing compound and D is the slope of the curve (the Hill Coefficient). From these curves the EC50 (concentration at which half maximal stimulation was achieved), the Hill coefficient as well as the maximal response in % of the maximal stimulatory effect obtained with saturating concentrations of L-glutamate were calculated.
A depression of the signal observed after addition of the EC20 concentration of L-glutamate was indicative of an inhibitory activity of the test compound.

T1 sequence (P41594 21-1180 isoform P41594-2 limits assumed): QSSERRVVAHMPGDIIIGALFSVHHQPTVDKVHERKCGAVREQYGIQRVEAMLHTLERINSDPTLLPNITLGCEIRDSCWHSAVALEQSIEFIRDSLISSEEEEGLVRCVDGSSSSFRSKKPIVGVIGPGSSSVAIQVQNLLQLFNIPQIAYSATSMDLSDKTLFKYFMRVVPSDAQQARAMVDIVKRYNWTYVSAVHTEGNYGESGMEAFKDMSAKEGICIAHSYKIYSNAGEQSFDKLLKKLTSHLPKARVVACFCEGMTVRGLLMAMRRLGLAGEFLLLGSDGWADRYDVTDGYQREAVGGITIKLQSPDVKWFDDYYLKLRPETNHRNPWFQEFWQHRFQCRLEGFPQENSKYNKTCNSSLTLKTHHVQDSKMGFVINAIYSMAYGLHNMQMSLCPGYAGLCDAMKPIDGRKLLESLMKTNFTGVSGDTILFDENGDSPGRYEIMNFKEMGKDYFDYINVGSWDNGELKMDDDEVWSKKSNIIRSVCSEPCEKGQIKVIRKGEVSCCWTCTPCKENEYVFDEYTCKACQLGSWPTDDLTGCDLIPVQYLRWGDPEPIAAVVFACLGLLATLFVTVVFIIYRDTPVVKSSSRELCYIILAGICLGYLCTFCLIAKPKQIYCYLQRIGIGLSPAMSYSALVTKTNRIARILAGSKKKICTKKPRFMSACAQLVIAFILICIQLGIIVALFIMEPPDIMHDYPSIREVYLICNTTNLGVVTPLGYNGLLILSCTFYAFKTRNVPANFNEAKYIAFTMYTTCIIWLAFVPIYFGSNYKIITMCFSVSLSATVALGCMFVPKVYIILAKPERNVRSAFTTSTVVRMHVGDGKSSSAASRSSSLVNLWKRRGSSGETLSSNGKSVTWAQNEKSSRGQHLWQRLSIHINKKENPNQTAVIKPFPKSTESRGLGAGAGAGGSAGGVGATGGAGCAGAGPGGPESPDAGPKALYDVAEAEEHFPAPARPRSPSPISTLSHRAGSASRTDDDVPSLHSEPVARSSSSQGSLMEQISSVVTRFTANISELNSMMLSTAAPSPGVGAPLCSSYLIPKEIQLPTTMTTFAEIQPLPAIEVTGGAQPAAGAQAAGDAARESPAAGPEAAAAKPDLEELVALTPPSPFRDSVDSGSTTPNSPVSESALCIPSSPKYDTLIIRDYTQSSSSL

As to `COCC(=O)Nc1ccc(C#Cc2ccccc2)cn1` [Example 10, 2-Methoxy-N-(5-phenylethynyl-pyridin-2-yl)-acetamide], the Emax is 43% and the EC50 (commonly the concentration needed to bring the measured effect to its halfway point) was 49 nM.
Take `CC(C)(C)C(=O)Nc1ccc(C#Cc2cccc(F)c2)cn1` [Example 11, N-[5-(3-Fluoro-phenylethynyl)-pyridin-2-yl]-2,2-dimethyl-propionamide]: the Emax amounted to 44% and the EC50 was found to be 15 nM.
For the compound `CC(C)CC(=O)Nc1ccc(C#Cc2ccccc2)cn1` [Example 4, 3-Methyl-N-(5-phenylethynyl-pyridin-2-yl)-butyramide], the Emax was 83% and the EC50 worked out at 71 nM.
The corresponding values for `CC(C)(C)C(=O)Nc1ccc(C#Cc2ccccc2)cn1` [Example 1, 2,2-Dimethyl-N-(5-phenylethynyl-pyridin-2-yl)-propionamide] are 72% and 19 nM.
`CCCC(=O)Nc1ccc(C#Cc2ccccc2)cn1` [Example 2, N-(5-Phenylethynyl-pyridin-2-yl)-butyramide]: the Emax is 52% and the EC50 turned out to be 70 nM.
Take `CC(C)(C)C(=O)Nc1ncc(C#Cc2ccccc2)cn1` [Example 7, 2,2-Dimethyl-N-(5-phenylethynyl-pyrimidin-2-yl)-propionamide]: the Emax was 59% and the EC50 was determined as 56 nM.
In the case of `CCCC(C)C(=O)Nc1ccc(C#Cc2ccccc2)cn1` (racemic) [Example 5, (RS)-2-Methyl-pentanoic acid (5-phenylethynyl-pyridin-2-yl)-amide], the Emax was determined as 75% and the EC50 was 48 nM.
In the case of `COC(C)(C)C(=O)Nc1ccc(C#Cc2ccccc2)cn1` [Example 12, 2-Methoxy-2-methyl-N-(5-phenylethynyl-pyridin-2-yl)-propionamide], the Emax came out at 68% and the EC50 was determined as 77 nM.
In the case of `CC(C)(C)C(=O)Nc1ccc(C#Cc2ccccc2)nn1` [Example 9, 2,2-Dimethyl-N-(6-phenylethynyl-pyridazin-3-yl)-propionamide], the Emax was 73% and the EC50 stood at 6 nM.
The matching figures for `CC(C)(C(=O)Nc1ccc(C#Cc2cccc(Cl)c2)cn1)C(F)(F)F` [Example 15, N-[5-(3-Chloro-phenylethynyl)-pyridin-2-yl]-3,3,3-trifluoro-2,2-dimethyl-propionamide]: 46% and 19 nM.
In the case of `CN(C(=O)C(C)(C)C)c1ncc(C#Cc2ccccc2)cn1` [Example 8, 2,2,N-Trimethyl-N-(5-phenylethynyl-pyrimidin-2-yl)-propionamide], the Emax came out at 74% and the EC50 was 52 nM.
With `CC(C)(C)C(=O)Nc1ccc(C#Cc2cccc(Cl)c2)nn1` [Example 16, N-[6-(3-Chloro-phenylethynyl)-pyridazin-3-yl]-2,2-dimethyl-propionamide], the Emax was 45% and the EC50 came to 7 nM.
`CSCC(=O)Nc1ccc(C#Cc2ccccc2)cn1` [Example 6, 2-Methylsulfanyl-N-(5-phenylethynyl-pyridin-2-yl)-acetamide]: the Emax turned out to be 47% and the EC50 came out at 18 nM.
Take `COC(C)(C)C(=O)Nc1ccc(C#Cc2cccc(F)c2)cn1` [Example 13, N-[5-(3-Fluoro-phenylethynyl)-pyridin-2-yl]-2-methoxy-2-methyl-propionamide]: the Emax came out at 54% and the EC50 stood at 85 nM.
The corresponding values for `CCCCC(=O)Nc1ccc(C#Cc2ccccc2)cn1` [Example 3, Pentanoic acid (5-phenylethynyl-pyridin-2-yl)-amide] are 84% and 48 nM.
On to `COC(C)(C)C(=O)Nc1ccc(C#Cc2cc(F)ccc2F)cn1` [Example 14, N-[5-(2,5-Difluoro-phenylethynyl)-pyridin-2-yl]-2-methoxy-2-methyl-propionamide], for which the Emax was 47% and the EC50 was found to be 94 nM.
